Columns and labels:
Assay in all cases: Antibacterial test (MIC), Gram-negative bacteria
Type in all cases: cell-based
[1] = tested on: Escherichia coli (ATCC 10536); settings: ATCC10536, read-out: MIC
Source text: (§1) As for the Gram-negative bacteria, E. coli (ATCC 10536, ATCC 25922), Klebsiella pneumonia (ATCC 10031), Proteus vulgaris (ATCC 13315), Pseudomonas aeruginosa (ATCC 9027), and Salmonella typhimurium (ATCC 13311) were used, and as for the Gram-positive bacteria, Staphylococcus aureus, MRSA (ATCC 33591), Staphylococcus epidermidis (ATCC 12228), Streptococcus pneumonia (ATCC 6301), Mycobacterium ranae (ATCC 110), and Enterococcus faecalis (VRE, ATCC 51575) were used. The various bacteria were cultured at 37° C. for 20 to 48 hours by conventional methods, and the minimum growth inhibitory concentration (MIC, μg/ml) was determined. Each of the specimens was dissolved in a 1% DMSO solution. Furthermore, amoxicillin, clarithromycin and gentamycin were used as control drugs of antibacterial substance.

[2] = tested on: Escherichia coli (ATCC 25922); settings: ATCC25922, read-out: MIC
Source text: as §1

[3] = tested on: Klebsiella pneumonia (ATCC 10031); settings: Klebsiella pneumoniae, ATCC10031, read-out: MIC
Source text: as §1

[4] = tested on: Proteus vulgaris (ATCC 13315); settings: ATCC13315, read-out: MIC
Source text: as §1

[5] = tested on: Pseudomonas aeruginosa (ATCC 9027); settings: ATCC9027, read-out: MIC
Source text: as §1

Measured: MIC

CCCCCCCOc1ccnc(CSc2nc3ccccc3[nH]2)c1C [Example 3, 2-[(4-n-heptyloxy-3-methylpyridin-2-yl)-methylthio]-1H-benzimidazole]
> 100 µg/mL: all assays above

CCCCCOc1ccnc(CSc2nc3ccccc3[nH]2)c1C [Example 1, 2-[(4-n-pentyloxy-3-methylpyridin-2-yl)-methylthio]-1H-benzimidazole]
> 100 µg/mL: all assays above

CCCCCCOc1ccnc(CSc2nc3ccccc3[nH]2)c1C [Example 2, 2-[(4-n-hexyloxy-3-methylpyridin-2-yl)-methylthio]-1H-benzimidazole]
> 100 µg/mL: all assays above
